Data on one molecule can be found in US20170131257A1, “SYSTEMS AND METHODS OF REMOVING AND MANAGING HEAVY METALS” (priority 2007, published 2017).

The nature of assay [1]: Mercury binding test of substrates in a salt solution.
For a further assay, the system named is Zebra Fish. It is filed as in vivo. The method, then:
Following EPA Method 7473, a total of 44 Zebra fish were randomized into four one gallon tanks and fed an experimental or control diet for 6 days. On the seventh day the fish were not fed so that any food being digested would have been absorbed or eliminated. The fish were fed 1.0 gram of food twice a day the first day. On the second day the fish were fed 0.5 grams twice a day. On days 3-6 the fish were fed 0.5 gram once a day.
The control and experimental feed was prepared using:
9.8 g. Frozen Thawed Brine Shrimp
The corn starch and water were boiled for 2 minutes then mixed with the remaining ingredients. The basic food was divided into four groups. The study groups consisted of: the control (Group C), an experimental group in which phytic acid di-sodium salt was added to the feed at 5% by […] (Group A), an experimental group in which 15 μg mercuric iodide salt per gram of food was added (Group B), and lastly Group D in which fish were fed the above stated amounts of mercuric iodide salt and phytic acid di-sodium salt.
The analysis was conducted by a contracted company, Northwest Pacific Labs. Samples were stratified by treatment and randomly sampled. A test of atomic absorption was used to determine absorbed mercury, after calibrating the instrument.

Assay [2] is described as follows: Chelation between mercury and phytic acid at different pH levels. The note with it: pH levels including acidic levels commonly found in the stomach. The text has this:
An amount of food 72 that may contain a concentration of the heavy metal (“contaminated food”) is consumed with an amount of the ligand 74, or, near the time of consuming the ligand 74. In one implementation, the ligand 74 is phytic acid. The ligand 74 is preferably in an amount suitable for at least substantially bonding to the mercury contained within the food 72. The ligand 74 may be prepared in the form of a marinade or sauce directly applied to the food 72, or may be a separate supplement such as a pill, alternate food source, or the like. Ingestion 76 may provide mixing of the food 72 and ligand 74. When the food 72 and ligand 74 are mixed, then chelation 78 causes the mercury or other heavy metal in the food 72 to bond to the ligand 74, thereby forming a chelate 82. The chelate 82 causes food 72 containing some mercury to become a clean food 80, substantially free of the mercury. The clean food 80 proceeds to normal digestion 84, while the chelate 82 proceeds to safe egestion 86 from the body. Thus, the mercury contained within food 72 is passed through the living organism without digestion 84.

Structures are written as SMILES.

As to `O=P(O)(O)O[C@H]1[C@H](OP(=O)(O)O)[C@@H](OP(=O)(O)O)[C@H](OP(=O)(O)O)[C@@H](OP(=O)(O)O)[C@H]1OP(=O)(O)O` [Phytic Acid, phytic acid], the “binding of mercury by the substrate” value in assay [1] was “would bind mercury”. Moreover, in the assay on Zebra Fish (Group D (phytic acid plus mercury) vs mercury alone, baselines of mercury controlled for, seven day time frame), the “reduction of mercury absorption” value is given as 50%. Further, in the assay with Zebra Fish (Group D: phytic acid 5% per wt. and 15 micrograms HgI2 per gram food, fed 6 days, N=4), the “Total Hg Wet Weight, Mean” value was “.1047”. Further, the “absorbed mercury, group D vs mercury-alone group B” value with Zebra Fish (weighted sample, Mann-Whitney test, Sig=0.000) is “less absorbed mercury”. Moreover, the “chelation with mercury across pH” value in assay [2] is listed as “can occur at a wide range of pH levels”.
